Laboratory results: PMC7160673, “A Degenerate Peptide Library Approach to Reveal Sequence Determinants of Methyllysine-Driven Protein Interactions” (Frontiers in Cell and Developmental Biology, 2020)

The substances below were run on 53BP1 TTD (assay: Histone peptide microarray, 53BP1 TTD). Conditions: 53BP1 TTD hits, average signal per peptide.
Assay type: binding
Method: (§1) Peptide microarrays were fabricated using an Aushon 2470 microarrayer and used as described ([Cornett et al., 2017]) with the following modifications. Protein and antibody hybridization steps were performed in buffer containing 25 mM HEPES pH 7.5, 100 mM NaCl, 0.5% BSA (w/v), and 0.1% NP-40. Slides were washed 3 × 5 min in PBS supplemented with 0.1% Tween-20 between each hybridization step. Antibodies used were primary anti-GST (Sigma #7781, 1:2,000 dilution) and an AlexaFluor 647-labeled secondary antibody (Life Technologies A-21245, 1:5,000 dilution). […] Full lists of peptides queried by array analysis are in Supplementary Table S2.
For “ARTK(Me)QTARKSTGGKAPRKQL-K(Biot)-NH2 [Peptide H3.1K4me1]”, the “Avg Signal” value was 0.08871. With “ARTK(Me3)QTARKSTGGK(Ac)APRK(Ac)QL-K(Biot)-NH2 [H3.1K4me3K14acK18ac]” the “Avg Signal” value was 0.09432. “ARTKQpTARK(Me3)STGGKAPRKQL-K(Biot)-NH2 [Peptide H3.1T6pK9me3]” was tested, and the “Avg Signal” value was 0.226. For “AR(Me)TK(Me3)QTARK(Ac)STGGK(Ac)APRK(Ac)QL-K(Biot)-NH2 [H3.1R2me1K4me3K9acK14acK18ac]”, the “Avg Signal” value was 0.04917. With “Ac-SGRGKGGKGLGK(Ac)GGAKRHRKVLR-Peg-Biot [Peptide H4K12ac]” the “Avg Signal” value was 0.1511. “AR(Me2a)pTK(Me3)QTARK(Ac)STGGK(Ac)APRK(Ac)QL-K(Biot)-NH2 [H3.1R2me2aT3pK4me3K9acK14acK18ac]” was tested, and the “Avg Signal” value was 0.09934. With “AR(Me)TK(Me3)QTARKSTGGKAPRKQL-K(Biot)-NH2 [H3.1R2me1K4me3]” the “Avg Signal” value was 0.08379. In the case of “Ac-SGRGK(Ac)QGGKARAKAKTR-Peg-Biot [Peptide H2AK5ac]”, the “Avg Signal” value is reported as 0.06555. In the case of “ARTK(Me3)QTARK(Ac)pSTGGKAPRKQL-K(Biot)-NH2 [H3.1K4me3K9acS10p]”, the “Avg Signal” value is reported as 0.1299. With “ARTK(Me3)QTARKpSTGGKAPRKQL-K(Biot)-NH2 [H3.1K4me3S10p]” the “Avg Signal” value was 0.00608.

These substances were tested on Millipore #07-449, anti-H3K27me3 (assay: Histone peptide microarray, Millipore 07-449). Conditions: Millipore 07-449 (anti-H3K27me3) hits, average signal per peptide.
Assay type: binding
Method: as §1
With “ARTK(Me3)QTARKSTGGK(Ac)APRK(Ac)QL-K(Biot)-NH2 [H3.1K4me3K14acK18ac]” the “Avg Signal” value was 0.01453. In the case of “ARTKQpTARK(Me3)STGGKAPRKQL-K(Biot)-NH2 [Peptide H3.1T6pK9me3]”, the “Avg Signal” value is reported as 0.02132. For “AR(Me)TK(Me3)QTARK(Ac)STGGK(Ac)APRK(Ac)QL-K(Biot)-NH2 [H3.1R2me1K4me3K9acK14acK18ac]”, the “Avg Signal” value was 0.05381. For “AR(Me2a)pTK(Me3)QTARK(Ac)STGGK(Ac)APRK(Ac)QL-K(Biot)-NH2 [H3.1R2me2aT3pK4me3K9acK14acK18ac]”, the “Avg Signal” value was 0.005728. In the case of “AR(Me)TK(Me3)QTARKSTGGKAPRKQL-K(Biot)-NH2 [H3.1R2me1K4me3]”, the “Avg Signal” value is reported as 0.07195. With “ARTK(Me3)QTARK(Ac)pSTGGKAPRKQL-K(Biot)-NH2 [H3.1K4me3K9acS10p]” the “Avg Signal” value was 0.007736. “ARTK(Me3)QTARKpSTGGKAPRKQL-K(Biot)-NH2 [H3.1K4me3S10p]” was tested, and the “Avg Signal” value was 0.003491.

What follows are substances tested on CST 9733 (anti-H3K27me3) (assay: Histone peptide microarray, CST 9733). Conditions: histone peptide array signal normalized to the highest peptide average per subarray, hits; CST 9733 LOT:14 dilution 1:5,000.
Assay type: binding
Method: as §1
In the case of “ARTK(Me3)QTARKSTGGK(Ac)APRK(Ac)QL-K(Biot)-NH2 [H3.1K4me3K14acK18ac]”, the “Avg Signal” value is reported as 0.006975. For “ARTKQpTARK(Me3)STGGKAPRKQL-K(Biot)-NH2 [Peptide H3.1T6pK9me3]”, the “Avg Signal” value was 0.01471. For “AR(Me)TK(Me3)QTARK(Ac)STGGK(Ac)APRK(Ac)QL-K(Biot)-NH2 [H3.1R2me1K4me3K9acK14acK18ac]”, the “Avg Signal” value was 0.009005. “Ac-SGRGKGGKGLGK(Ac)GGAKRHRKVLR-Peg-Biot [Peptide H4K12ac]” was tested, and the “Avg Signal” value was 0.000354. With “AR(Me2a)pTK(Me3)QTARK(Ac)STGGK(Ac)APRK(Ac)QL-K(Biot)-NH2 [H3.1R2me2aT3pK4me3K9acK14acK18ac]” the “Avg Signal” value was 0.0005148. With “AR(Me)TK(Me3)QTARKSTGGKAPRKQL-K(Biot)-NH2 [H3.1R2me1K4me3]” the “Avg Signal” value was 0.002343. For “ARTK(Me3)QTARK(Ac)pSTGGKAPRKQL-K(Biot)-NH2 [H3.1K4me3K9acS10p]”, the “Avg Signal” value was 0.004944. “ARTK(Me3)QTARKpSTGGKAPRKQL-K(Biot)-NH2 [H3.1K4me3S10p]” was tested, and the “Avg Signal” value was 0.002306.

Each substance was assayed on Abcam #ab8895, anti-H3K4me1 (assay: Histone peptide microarray, Abcam ab8895). Conditions: Abcam ab8895 (anti-H3K4me1) hits, average signal per peptide.
Assay type: binding
Method: as §1
With “ARTK(Me)QTARKSTGGKAPRKQL-K(Biot)-NH2 [Peptide H3.1K4me1]” the “Avg Signal” value was 0.89. With “AR(Me)TK(Me3)QTARK(Ac)STGGK(Ac)APRK(Ac)QL-K(Biot)-NH2 [H3.1R2me1K4me3K9acK14acK18ac]” the “Avg Signal” value was 0.01244. With “Ac-SGRGKGGKGLGK(Ac)GGAKRHRKVLR-Peg-Biot [Peptide H4K12ac]” the “Avg Signal” value was 0.001961. “AR(Me2a)pTK(Me3)QTARK(Ac)STGGK(Ac)APRK(Ac)QL-K(Biot)-NH2 [H3.1R2me2aT3pK4me3K9acK14acK18ac]” was tested, and the “Avg Signal” value was 0.003812. For “AR(Me)TK(Me3)QTARKSTGGKAPRKQL-K(Biot)-NH2 [H3.1R2me1K4me3]”, the “Avg Signal” value was 0.01284. “Ac-SGRGK(Ac)QGGKARAKAKTR-Peg-Biot [Peptide H2AK5ac]” was tested, and the “Avg Signal” value was 0.04469.

What follows are substances tested on ABClonal #A2355, anti-H3K4me1 (assay: Histone peptide microarray, ABclonal A2355). Conditions: Abclonal A2355 (anti-H3K4me1) hits.
Assay type: binding
Method: as §1
“ARTK(Me)QTARKSTGGKAPRKQL-K(Biot)-NH2 [Peptide H3.1K4me1]” was tested, and the “Avg Signal” value was 0.7621. In the case of “Ac-SGRGK(Ac)QGGKARAKAKTR-Peg-Biot [Peptide H2AK5ac]”, the “Avg Signal” value is reported as 0.0257.

These substances were tested on Active Motif #39161, anti-H3K9me3 (assay: Histone peptide microarray, Active Motif 39161). Conditions: Active Motif 39161 (anti-H3K9me3) hits.
Assay type: binding
Method: as §1
“ARTK(Me3)QTARKSTGGK(Ac)APRK(Ac)QL-K(Biot)-NH2 [H3.1K4me3K14acK18ac]” was tested, and the “Avg Signal” value was 0.0136. With “ARTKQpTARK(Me3)STGGKAPRKQL-K(Biot)-NH2 [Peptide H3.1T6pK9me3]” the “Avg Signal” value was 0.3154. In the case of “AR(Me)TK(Me3)QTARK(Ac)STGGK(Ac)APRK(Ac)QL-K(Biot)-NH2 [H3.1R2me1K4me3K9acK14acK18ac]”, the “Avg Signal” value is reported as 0.006911. For “Ac-SGRGKGGKGLGK(Ac)GGAKRHRKVLR-Peg-Biot [Peptide H4K12ac]”, the “Avg Signal” value was 0.01336. In the case of “AR(Me2a)pTK(Me3)QTARK(Ac)STGGK(Ac)APRK(Ac)QL-K(Biot)-NH2 [H3.1R2me2aT3pK4me3K9acK14acK18ac]”, the “Avg Signal” value is reported as 0.0001961. In the case of “ARTK(Me3)QTARK(Ac)pSTGGKAPRKQL-K(Biot)-NH2 [H3.1K4me3K9acS10p]”, the “Avg Signal” value is reported as 0.01343. With “ARTK(Me3)QTARKpSTGGKAPRKQL-K(Biot)-NH2 [H3.1K4me3S10p]” the “Avg Signal” value was 0.0006195.
